From article PMC6099740, “Design, Synthesis and Biological Evaluation of 6,7-Disubstituted-4-phenoxyquinoline Derivatives Bearing Pyridazinone Moiety as c-Met Inhibitors” (Molecules : A Journal of Synthetic Chemistry and Natural …, 2018)
Entries after “also recorded” stand apart in the source; their conditions may differ.

Key:
A549 cells = assay: MTT cytotoxicity assay, A549; assay type: cell-based; settings: Homo sapiens, 72 h
Procedure: (§1) The results expressed as IC50 values were summarized in Table 1, and the values were the average of at least two independent experiments.
(§2) The cancer cell lines were cultured in minimum essential medium (MEM) supplement with 10% fetal bovine serum (FBS). […] The test compounds at indicated final concentrations were added to the culture medium and the cell cultures were continued for 72 h. […] All of the compounds were tested two times in each of the cell lines. The results expressed as inhibition rates or IC50 (half-maximal inhibitory concentration) were the averages of two determinations and calculated by using the Bacus Laboratories Incorporated Slide Scanner (Bliss) software (the Bacus Laboratories Inc. Slide Scanner (BLISS) system, Lombard, IL, USA)..

HepG2 cells [1] = assay: MTT cytotoxicity assay, HepG2; assay type: cell-based; settings: Homo sapiens, 72 h
Procedure: as §1
(§3) The cancer cell lines were cultured in minimum essential medium (MEM) supplement with 10% fetal bovine serum (FBS). Approximately 4 × 10^3 cells, suspended in MEM medium, were plated onto each well of a 96-well plate and incubated in 5% CO2 at 37 °C for 24 h. The test compounds at indicated final concentrations were added to the culture medium and the cell cultures were continued for 72 h. Fresh MTT was added to each well at a terminal concentration of 5 μg/mL and incubated with cells at 37 °C for 4 h. The formazan crystals were dissolved in 100 μL DMSO each well, and the absorbency at 492 nm (for absorbance of MTT formazan) and 630 nm (for the reference wavelength) was measured with the ELISA reader. All of the compounds were tested two times in each of the cell lines. The results expressed as inhibition rates or IC50 (half-maximal inhibitory concentration) were the averages of two determinations and calculated by using the Bacus Laboratories Incorporated Slide Scanner (Bliss) software (the Bacus Laboratories Inc. Slide Scanner (BLISS) system, Lombard, IL, USA)..

MCF-7 cells = assay: MTT cytotoxicity assay, MCF-7; assay type: cell-based; settings: Homo sapiens, MCF7, 72 h
Procedure: as §1, §2

A549, HepG2, MCF-7 = assay: MTT cytotoxicity assay, range over the three cancer cell lines; assay type: cell-based; settings: Homo sapiens; range over A549, HepG2 and MCF-7
Procedure: as §1, §3

c-Met kinase [2] = molecular target: T1, c-Met kinase (Homo sapiens, UniProt P08581); assay: c-Met kinase inhibition assay (HTRF; mobility shift)
Procedure: All kinase assays were performed in 96-well plates in a 50 µL reaction volume. The kinase buffer contains 50 mM HEPES, pH 7.5, 10 mM MgCl2, 0.0015% Brij-35 and 2 mM DTT. The stop buffer contains 100 mM HEPES, pH 7.5, 0.015% Brij-35, 0.2% Coating Reagent 3 and 50 mM EDTA. Dilute the compounds to 500 µM by 100% DMSO, then transfer 10 µL of compound to a new 96-well plate as the intermediate plate, add 90 µL kinase buffer to each well. Transfer 5 µL of each well of the intermediate plate to 384-well plates. The following amounts of enzyme and substrate were used per well: kinase base buffer, FAM-labeled peptide, ATP and enzyme solution. Wells containing the substrate, enzyme, DMSO without compound were used as DMSO control. Wells containing just the substrate without enzyme were used as low control. Incubate at room temperature for 10 min. Add 10 µL peptide solution to each well. […] At last collect data on Caliper program and convert conversion values to inhibition values. Percent inhibition = (max − conversion)/(max − min) × 100. ‘max’ stands for DMSO control; ‘min’ stands for low control [20].

HepG2 cells [3] = assay: Acridine orange (AO) single staining, nuclear morphology; assay type: cell-based, human; settings: 0.01 μM, 12 h
Procedure: Potential compound 53 was selected for validation and evaluation of inhibition of cell proliferation and induction of apoptosis in HepG2 cells. […] Moreover, from the results of the inverted fluorescence microscopy, it can be observed that the cells in the control group (Figure 3a) were full and the edge was clear, which was added without nothing.
The cancer cell lines were cultured in minimum essential medium (MEM) supplement with 10% fetal bovine serum (FBS). Approximately 2 × 10^4 cells, suspended in MEM medium, were plated onto each well of a 24-well plate and incubated in 5% CO2 at 37 °C for 24 h. Then the medium was removed, and 1 mL drug-free medium and 1mL medium with the test compound 7c at indicated final concentrations were added to each well in control group and test group respectively and the cell cultures were continued for 12 h. While the medium was removed, AO-PBS buffer was added to each well at a terminal concentration of 10 µg/mL and stained in dark for 10 min. Each well was washed with PBS buffer three times and observed under a fluorescence microscope.
Figure 3 The cell morphology of HepG2 cells of the control and test groups. (a) HepG2 cells treated without any compounds; (b) HepG2 cells were treated with 0.01 µM for 12 h; Changes of nuclear morphology were determined by AO staining.

c-Met kinase [4] = molecular target: T1, c-Met kinase; set-up: method as in PMID 28384549; settings: previous research; cited from earlier work

T1 sequence (P08581 25-1390): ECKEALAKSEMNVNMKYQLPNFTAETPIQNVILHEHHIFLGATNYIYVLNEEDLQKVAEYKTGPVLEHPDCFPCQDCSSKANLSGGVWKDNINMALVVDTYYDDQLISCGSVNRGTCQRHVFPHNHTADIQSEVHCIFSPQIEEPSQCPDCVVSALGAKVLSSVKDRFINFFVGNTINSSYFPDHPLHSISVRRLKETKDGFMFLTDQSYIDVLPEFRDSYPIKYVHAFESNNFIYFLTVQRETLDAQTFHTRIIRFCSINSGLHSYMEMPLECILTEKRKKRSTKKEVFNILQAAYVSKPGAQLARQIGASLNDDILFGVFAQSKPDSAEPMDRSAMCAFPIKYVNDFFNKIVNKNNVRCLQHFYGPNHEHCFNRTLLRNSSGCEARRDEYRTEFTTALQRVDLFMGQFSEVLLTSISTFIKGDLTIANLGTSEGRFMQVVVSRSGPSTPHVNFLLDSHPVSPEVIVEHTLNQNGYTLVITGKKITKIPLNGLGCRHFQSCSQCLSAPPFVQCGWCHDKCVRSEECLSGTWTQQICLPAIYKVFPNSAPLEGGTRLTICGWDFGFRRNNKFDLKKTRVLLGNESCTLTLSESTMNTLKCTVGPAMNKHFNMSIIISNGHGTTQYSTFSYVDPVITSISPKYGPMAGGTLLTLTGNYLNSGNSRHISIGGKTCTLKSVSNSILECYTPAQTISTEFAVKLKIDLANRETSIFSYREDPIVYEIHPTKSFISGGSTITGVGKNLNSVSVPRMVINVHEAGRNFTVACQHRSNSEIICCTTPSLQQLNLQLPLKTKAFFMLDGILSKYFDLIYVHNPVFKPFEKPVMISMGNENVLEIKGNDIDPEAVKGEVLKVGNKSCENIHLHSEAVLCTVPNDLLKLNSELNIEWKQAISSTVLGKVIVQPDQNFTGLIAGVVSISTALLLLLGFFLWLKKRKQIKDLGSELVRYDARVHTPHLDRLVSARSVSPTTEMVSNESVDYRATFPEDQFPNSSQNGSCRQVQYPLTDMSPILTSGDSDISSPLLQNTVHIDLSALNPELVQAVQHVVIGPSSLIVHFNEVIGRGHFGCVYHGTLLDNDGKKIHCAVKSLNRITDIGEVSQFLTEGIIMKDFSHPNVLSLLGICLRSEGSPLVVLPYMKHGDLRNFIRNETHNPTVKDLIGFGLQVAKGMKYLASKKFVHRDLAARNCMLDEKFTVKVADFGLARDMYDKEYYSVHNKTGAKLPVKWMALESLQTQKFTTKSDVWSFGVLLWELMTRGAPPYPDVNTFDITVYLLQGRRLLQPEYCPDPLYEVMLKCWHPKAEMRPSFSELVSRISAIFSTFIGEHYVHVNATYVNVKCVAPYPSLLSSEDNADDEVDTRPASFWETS

Row | SMILES | IC50 (A549 cells) | IC50 (HepG2 cells [1]) | IC50 (MCF-7 cells) | IC50 (A549, HepG2, MCF-7) | melting point | IC50 (c-Met kinase [2]) | Inhibition of proliferation and induction of apoptosis (AO staining) (HepG2 cells [3]) | enzyme activity IC50 values (c-Met kinase [4])
1 | COc1cc2c(Oc3ccc(NC(=O)c4nn(-c5ccccc5)ccc4=O)cc3F)ccnc2cc1OCCCN1CCCCC1 [Compound 37, N-(3-Fluoro-4-((6-methoxy-7-(3-(piperidin-1-yl)propoxy)quinolin-4-yl)oxy)phenyl)-4-oxo-1-phenyl-1,4-dihydropyridazine-3-carboxamide] | 60 ± 10 nM | 180 ± 10 nM | 30 ± 10 nM | 2 to 1030 nM | 152.3 to 153.1 °C | 4 nM | – | –
2 | COc1ccc(-n2ccc(=O)c(C(=O)Nc3ccc(Oc4ccnc5cc(OCCCN6CCC(C)CC6)c(OC)cc45)c(F)c3)n2)cc1 [Compound 41, N-(3-Fluoro-4-((6-methoxy-7-(3-(4-methylpiperidin-1-yl)propoxy)quinolin-4-yl)oxy)phenyl)-1-(4-methoxyphenyl)-4-oxo-1,4-dihydropyridazine-3-carboxamide] | 20 ± 10 nM | 8 ± 1 nM | 20 ± 10 nM | 2 to 1030 nM | 145.1 to 146.3 °C | 0.9 nM | – | –
3 | COc1cc2c(Oc3ccc(NC(=O)c4nn(-c5ccc(Cl)cc5)ccc4=O)cc3F)ccnc2cc1OCCCN1CCOCC1 [Compound 23, 1-(4-Chlorophenyl)-N-(3-fluoro-4-((6-methoxy-7-(3-morpholinopropoxy)quinolin-4-yl)oxy)phenyl)-4-oxo-1,4-dihydropyridazine-3-carboxamide] | > 50000 nM | > 50000 nM | > 50000 nM | – | 138.2 to 139.1 °C | > 500 nM | – | –
4 | COc1cc2c(Oc3ccc(NC(=O)c4nn(-c5ccc(Br)cc5)ccc4=O)cc3F)ccnc2cc1OCCCN1CCCCC1 [Compound 32, 1-(4-Bromophenyl)-N-(3-fluoro-4-((6-methoxy-7-(3-(piperidin-1-yl)propoxy)quinolin-4-yl)oxy)phenyl)-4-oxo-1,4-dihydropyridazine-3-carboxamide] | 2890 ± 460 nM | 1750 ± 240 nM | 2450 ± 390 nM | – | 141.3 to 143.4 °C | 246 nM | – | –
5 | COc1cc2c(Oc3ccc(NC(=O)c4nn(-c5ccc(Cl)c(C(F)(F)F)c5)ccc4=O)cc3F)ccnc2cc1OCCCN1CCCCC1 [Compound 36, 1-(4-Chloro-3-(trifluoromethyl)phenyl)-N-(3-fluoro-4-((6-methoxy-7-(3-(piperidin-1-yl)propoxy)quinolin-4-yl)oxy)phenyl)-4-oxo-1,4-dihydropyridazine-3-carboxamide] | 790 ± 60 nM | 1800 ± 260 nM | 730 ± 80 nM | – | 185.7 to 186.6 °C | 11 nM | – | –
6 | COc1cc2c(Oc3ccc(NC(=O)c4nn(-c5ccc(Cl)c(C(F)(F)F)c5)ccc4=O)cc3F)ccnc2cc1OCCCN1CCOCC1 [Compound 28, 1-(4-Chloro-3-(trifluoromethyl)phenyl)-N-(3-fluoro-4-((6-methoxy-7-(3-morpholinopropoxy)quinolin-4-yl)oxy)phenyl)-4-oxo-1,4-dihydropyridazine-3-carboxamide] | 5250 ± 720 nM | > 50000 nM | 7490 ± 870 nM | – | 203.5 to 204.7 °C | 382 nM | – | –
7 | COc1cc2c(Oc3ccc(NC(=O)c4nn(-c5ccc(F)cc5)ccc4=O)cc3F)ccnc2cc1OCCCN1CCCCC1 [Compound 30, N-(3-Fluoro-4-((6-methoxy-7-(3-(piperidin-1-yl)propoxy)quinolin-4-yl)oxy)phenyl)-1-(4-fluorophenyl)-4-oxo-1,4-dihydropyridazine-3-carboxamide] | 310 ± 10 nM | 990 ± 10 nM | 690 ± 20 nM | – | 149.4 to 151.1 °C | 17 nM | – | –
8 | COc1ccc(-n2ccc(=O)c(C(=O)Nc3ccc(Oc4ccnc5cc(OCCCN6CCOCC6)c(OC)cc45)c(F)c3)n2)cc1 [Compound 25, N-(3-Fluoro-4-((6-methoxy-7-(3-morpholinopropoxy)quinolin-4-yl)oxy)phenyl)-1-(4-methoxyphenyl)-4-oxo-1,4-dihydropyridazine-3-carboxamide] | 4240 ± 620 nM | 6750 ± 820 nM | 27200 ± 1440 nM | – | 153.8 to 155.2 °C | 233 nM | – | –
9 | COc1cc2c(Oc3ccc(NC(=O)c4nn(-c5ccccc5)ccc4=O)cc3F)ccnc2cc1OCCCN1CCN(C)CC1 [Compound 53, N-(3-Fluoro-4-((6-methoxy-7-(3-(4-methylpiperazin-1-yl)propoxy)quinolin-4-yl)oxy)phenyl)-4-oxo-1-phenyl-1,4-dihydropyridazine-3-carboxamide] | 3 ± 1 nM | 490 ± 30 nM | 6 ± 1 nM | 2 to 1030 nM | – | 0.6 nM | significantly inhibited HepG2 cells proliferation and induced apoptosis; also recorded: could induce remarkable apoptosis of HepG2 cells | –
10 | Cc1cc(=O)n(-c2ccc(F)cc2)nc1C(=O)Nc1ccc(Oc2ccnc3[nH]ccc23)c(F)c1 [Compound 7] | – | – | – | – | – | – | – | in the nanomole level
11 | COc1cc2c(Oc3ccc(NC(=O)c4nn(-c5ccc(Br)cc5F)ccc4=O)cc3F)ccnc2cc1OCCCN1CCC(C)CC1 [Compound 43, 1-(4-Bromo-2-fluorophenyl)-N-(3-fluoro-4-((6-methoxy-7-(3-(4-methylpiperidin-1-yl)propoxy)quinolin-4-yl)oxy)phenyl)-4-oxo-1,4-dihydropyridazine-3-carboxamide] | 30 ± 10 nM | 3 ± 1 nM | 5 ± 1 nM | 2 to 1030 nM | 115.8 to 117.3 °C | 2 nM | – | –
12 | COc1cc2c(Oc3ccc(NC(=O)c4nn(-c5ccc(Cl)c(C(F)(F)F)c5)ccc4=O)cc3F)ccnc2cc1OCCCN1CCN(C)CC1 [Compound 52, 1-(4-Chloro-3-(trifluoromethyl)phenyl)-N-(3-fluoro-4-((6-methoxy-7-(3-(4-methylpiperazin-1-yl)propoxy)quinolin-4-yl)oxy)phenyl)-4-oxo-1,4-dihydropyridazine-3-carboxamide] | 40 ± 10 nM | 330 ± 30 nM | 150 ± 20 nM | 2 to 1030 nM | 211.7 to 212.6 °C | 0.8 nM | – | –
13 | COc1cc2c(Oc3ccc(NC(=O)c4nn(-c5ccc(F)c(Cl)c5)ccc4=O)cc3F)ccnc2cc1OCCCN1CCC(C)CC1 [Compound 42, 1-(3-Chloro-4-fluorophenyl)-N-(3-fluoro-4-((6-methoxy-7-(3-(4-methylpiperidin-1-yl)propoxy)quinolin-4-yl)oxy)phenyl)-4-oxo-1,4-dihydropyridazine-3-carboxamide] | 5 ± 1 nM | 1030 ± 10 nM | 7 ± 1 nM | 2 to 1030 nM | 112.5 to 113.7 °C | 1.2 nM | – | –
14 | COc1cc2c(Oc3ccc(NC(=O)c4nn(-c5ccc(F)c(Cl)c5)ccc4=O)cc3F)ccnc2cc1OCCCN1CCOCC1 [Compound 26, 1-(3-Chloro-4-fluorophenyl)-N-(3-fluoro-4-((6-methoxy-7-(3-morpholinopropoxy)quinolin-4-yl)oxy)phenyl)-4-oxo-1,4-dihydropyridazine-3-carboxamide] | 3700 ± 570 nM | > 50000 nM | 5960 ± 770 nM | – | 138.1 to 140.6 °C | 352 nM | – | –
15 | COc1cc2c(Oc3ccc(NC(=O)c4nn(-c5ccc(F)c(Cl)c5)ccc4=O)cc3F)ccnc2cc1OCCCN1CCCCC1 [Compound 34, 1-(3-Chloro-4-fluorophenyl)-N-(3-fluoro-4-((6-methoxy-7-(3-(piperidin-1-yl)propoxy)quinolin-4-yl)oxy)phenyl)-4-oxo-1,4-dihydropyridazine-3-carboxamide] | 360 ± 40 nM | 1280 ± 110 nM | 150 ± 40 nM | – | 121.7 to 123.4 °C | 2 nM | – | –
